Publication PMC9266914, “Broad Spectrum Functional Activity of Structurally Related Monoanionic Au(III) Bis(Dithiolene) Complexes” (International Journal of Molecular Sciences, 2022)

Columns and labels:
[1] = biological target: human serum albumin (HSA) (Homo sapiens, UniProt P02768); assay: HSA fluorescence quenching (Stern-Volmer); type: binding; conditions: for Stern Volmer quenching constant KSV / association constant Ka / bimolecular quenching constant Kq / number of binding sites n: HSA, Hepes pH 7.4; for HSA fluorescence intensity quenched: two molar excesses of complex, 37 °C, 24 h, pH 7.4
Sequence of human serum albumin (HSA) (P02768 25-609): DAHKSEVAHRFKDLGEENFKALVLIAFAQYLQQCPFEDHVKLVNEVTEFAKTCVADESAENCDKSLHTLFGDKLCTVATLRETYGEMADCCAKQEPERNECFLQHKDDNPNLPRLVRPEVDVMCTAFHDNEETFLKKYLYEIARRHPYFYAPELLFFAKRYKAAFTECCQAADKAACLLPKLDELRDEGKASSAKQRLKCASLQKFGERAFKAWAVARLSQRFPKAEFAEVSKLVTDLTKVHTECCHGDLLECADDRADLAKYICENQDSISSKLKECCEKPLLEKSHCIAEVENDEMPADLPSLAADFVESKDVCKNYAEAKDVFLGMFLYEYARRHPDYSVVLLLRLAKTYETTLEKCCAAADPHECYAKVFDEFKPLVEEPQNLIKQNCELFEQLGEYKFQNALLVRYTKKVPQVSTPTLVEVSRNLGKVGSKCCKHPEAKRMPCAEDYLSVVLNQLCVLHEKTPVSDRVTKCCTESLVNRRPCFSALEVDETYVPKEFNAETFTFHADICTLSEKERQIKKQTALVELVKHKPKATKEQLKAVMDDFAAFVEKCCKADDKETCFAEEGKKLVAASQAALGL
Experimental: Stock solutions of HSA were prepared by dissolving HSA in 10 mM Hepes buffer, pH 7.4. The protein concentration was determined spectrophotometrically using the molar absorption coefficient of 36,500 M^−1 cm^−1 at 280 nm. The complexes [P][AuSEt(=S)], [P][AuSEt(=Se)], [P][AuSeiPr(=S)] and [P][AuSBu(=S)] were first prepared at 1 mM concentration in DMSO due to the limited solubility of the complexes in aqueous media. A series of complex–protein solutions were prepared by adding different concentrations of gold complexes solutions to the protein solution previously prepared. After preparation of the batch complex–protein solutions, the final concentration of DMSO was 1%. For fluorescence acquisition, the final HSA concentration was […] and the gold concentrations were […]. The mixtures were stirred to ensure the formation of a homogeneous solution and then kept in an incubator at 37 °C for 24 h in the dark to stabilize and enhance the interaction time. The reference solutions without protein were prepared following the procedures described above.
Steady-state fluorescence measurements were performed with a Fluorolog Model-3.22 spectrofluorimeter from Horiba Jobin Yvon at 25 °C. All the experiments were performed in Hellma® semi-micro fluorescence cuvettes (Suprasil® quartz, path-length 10 × 4 mm, chamber volume […]) with the 10 mm path length for the excitation of the sample. The excitation and emission bandwidths were fixed at 4.0 nm, and the excitation wavelength was 295 nm to excite selectively the tryptophan 214 residue, the emission spectra were recorded from 305 to 550 nm. Buffer solutions of gold complexes in corresponding concentrations were used as reference for the measured fluorescence spectra of protein–complex mixtures. The fluorescence intensities were corrected for the absorption of the exciting light and reabsorption of the emitted light to decrease the inner filter effect using UV–visible absorption data recorded for each sample on a Jasco V-660 spectrophotometer in the range of 260 to 800 nm with 1 mm path quartz cells. More details and all the equations can be found in the SI.
F0 = 1 + (K + K )[Q] + K K [Q]2 (S1) where F0 and F are the fluorescence intensities of HSA in the absence and presence of a quencher (Au complex), respectively; KD and KS represents the dynamic and static constants, respectively, and [Q] is the quencher concentration.
When the fluorescence intensity quenching occurs by a purely static or dynamic mechanism, the following Stern-Volmer equation can be used:
F0 = 1 + K τ [Q] = 1 + K [Q] (S2) where Kq, 0 and KSV represents the bimolecular quenching constant, the fluorophore lifetime in the absence of the quencher and the Stern -Volmer quenching constant, respectively.
The relationship between the fluorescence intensity of the protein and the complex concentrati on is given by the equation:
log (F0 − F) = log K + n log[Q] […]
Table S1. Values of Stern Volmer quenching constant (Ksv), association constant (Ka) and number of binding sites (n) for the interaction for HSA with gold […]

C. glabrata CBS138 = assay: MIC determination, C. glabrata; type: cell-based, Candida glabrata; conditions: RPMIG, 24 h, 35 °C
Description: The bacterial strains Escherichia coli ATCC25922 and Staphylococcus aureus Newman were used in this work and maintained in Lennox Broth (LB) solid medium, composed of 10 g/L tryptone, 5 g/L yeast extract, 5 g/L NaCl and 20 g/L agar. The fungal strains Candida albicans SC5134 and C. glabrata CBS138 were used in this work and maintained in YPD solid medium, composed of 20 g/L glucose, 20 g/L peptone, 10 g/L yeast extract and 15 g/L agar. The strains were isolated from human infections.
The antimicrobial activity of the complexes towards the bacterial and fungal strains was assessed by the determination of the Minimal Inhibitory Concentration (MIC) of each complex towards the indicated microbial strains, based on standard methods, and as previously described. […] Serial 1:2 dilutions of stock solutions were prepared for each complex in Mueller–Hinton (MH) broth (Fluka Analytical) or RPMI-1640 medium (Sigma) supplemented with 20 g/L glucose and buffered with 0.165 M morpholinepropanesulphonic acid (RPMIG) to pH 7.0. Solutions prepared with MH were used for testing bacteria, while those prepared with RPMIG were used for testing fungi. For antibacterial activity assays, the final concentrations ranged from 250 to 0.24 μg/mL (when stock solution final concentration was 10 mg/mL), 125 μg/mL to 0.12 μg/mL (when stock solution final concentration was 5 mg/mL) and 62.5 to 0.06 μg/mL (when stock solution final concentration was 2.5 mg/mL). For antifungal assays, the final concentrations ranged from 125 μg/mL to 0.12 μg/mL (when stock solution final concentration was 10 mg/mL), 62.5 to 0.06 μg/mL (when stock solution final concentration was 5 mg/mL) and 31.25 to 0.03 μg/mL (when stock solution final concentration was 2.5 mg/mL). Then, 100 μL aliquots of adequately diluted bacterial suspensions of S. aureus Newman or E. coli ATCC 25922 were mixed with the MH serially diluted complexes aliquots to obtain 5 × 10^5 CFU/mL. In the case of fungi, cultures were diluted to obtain a final optical density of 0.025, measured at 530 nm (OD530). Bacterial suspensions were prepared from cultures grown for 5 h in MH broth at 37 °C and 250 rev·min^−1 and adequately diluted with fresh MH medium, while fungal suspensions were prepared from overnight cultures grown in YPD broth at 30 °C and 250 rev.min^−1 and diluted in buffered RPMIG. After 22 h of incubation at 37 °C (bacteria) or 24 h at 35 °C (fungi), the wells’ content was resuspended by pipetting and the OD640 (bacteria) or OD530 (fungi) were measured in a SPECTROstar Nano microplate reader (BMG Labtech).
At least three independent experiments were performed in duplicate for each complex under study. […] Positive (no complex) and negative controls (no inoculum) were performed for each experiment. The effect of 5% (V/V) DMSO on microbial growth was also assessed.

Row | SMILES | Stern Volmer quenching constant KSV [1] | association constant Ka [1] | bimolecular quenching constant Kq [1] | number of binding sites n [1] | HSA fluorescence intensity quenched [1] [%] | MIC C. glabrata CBS138 (C. glabrata CBS138) [µg/mL]
1 | CCn1c2c(sc1=[Se])[S][Au-]1([S]c3sc(=[Se])n(CC)c3[S]1)[S]2.c1ccc([P+](c2ccccc2)(c2ccccc2)c2ccccc2)cc1 [[P][AuSEt(=Se)]] | 5.00 ± 0.17 x 105 L mol-1 | 0.52 ± 0.03 x 104 L mol-1 | 5.00 ± 0.17 x 1013 L mol-1 s-1 | 2.135 | 79.4 | >62.5
2 | CC(=O)OC[C@H]1O[C@@H]([S-])[C@H](OC(C)=O)[C@@H](OC(C)=O)[C@@H]1OC(C)=O.CCP(CC)CC.[Au+] [Auranofin, reference compound] |  |  |  |  |  | 15.2 ± 0.6
3 | CCCCn1c2c(sc1=S)[S][Au-]1([S]c3sc(=S)n(CCCC)c3[S]1)[S]2.c1ccc([P+](c2ccccc2)(c2ccccc2)c2ccccc2)cc1 [[P][AuSBu(=S)]] | 14.9 ± 0.13 x 105 L mol-1 | 9.34 ± 0.01 x 104 L mol-1 | 14.9 ± 0.05 x 1013 L mol-1 s-1 | 0.738 | 89.7 | >62.5
4 | CCn1c2c(sc1=S)[S][Au-]1([S]c3sc(=S)n(CC)c3[S]1)[S]2.c1ccc([P+](c2ccccc2)(c2ccccc2)c2ccccc2)cc1 [[P][AuSEt(=S)]] | 6.48 ± 0.06 x 105 L mol-1 | 1.12 ± 0.02 x 104 L mol-1 | 6.48 ± 0.06 x 1013 L mol-1 s-1 | 1.179 | 76.3 | >62.5
5 | CC(C)n1c2c(sc1=S)[Se][Au-]1([Se]c3sc(=S)n(C(C)C)c3[Se]1)[Se]2.c1ccc([P+](c2ccccc2)(c2ccccc2)c2ccccc2)cc1 [[P][AuSeiPr(=S)]] | 3.63 ± 0.04 x 105 L mol-1 | 1.52 ± 0.01 x 104 L mol-1 | 3.63 ± 0.01 x 1013 L mol-1 s-1 | 0.957 | 60 | >31.25
